Experimental data as given in US11022604B2, “Dock derived compound against laminin receptor (37 LR) and uses thereof” (Purdue Research Foundation, priority 2017, dated 2021).

Test system: EA.hy926 endothelial cells
Assay: Angiogenesis tube formation assay
Format: cell-based
Experimental: Expression of PEDF-signaling associated genes from PC-3 cells treated with 50 μM C3, compared to DMSO control and normalized to GAPDH (n=3, mean±SEM). A Holm-Sidak multiple t test was used for statistical analysis (*p<0.05,**O<0.01, ***<0.001). […] Average tube count for 0.1% DMSO, 0.5% DMSO, and 1, 10 and 50 μM treatment with C3 (n=7, mean±SEM). 1 and 10 μM C3 were compared with respective 0.5% DMSO (unpaired two-tailed t test, ****<0.0001). 50 μM C3 was compared with respective 0.1% DMSO (unpaired two-tailed t test p<0.0001).
Wound Healing Assay. PC-3 cells were seeded in 6 well plates at 3×10^5 cells per well in complete media until the cells reached confluency. Three horizontal and three vertical scratches were made in the confluent monolayers using a standard 200 μL pipette tip and cellular debris were removed by washing with 1×DPBS three times. 1×RPMI-1640 supplemented with C3 or DMSO was added and cells were incubated for 48 hours as described previously. […] Images were uploaded and analyzed for scratch geometry using the tscratch program (96). First, global thresholding was performed, then individual images were manually inspected for single image threshold adjustment and scratch geometries were quantified. […] The samples were analyzed using the Dionex UltiMate 3000 RSLC Nano System coupled to the Q Exactive™ HF Hybrid Quadrupole-Orbitrap MS (Thermo Scientific). […]

calcein uptake: did not alter calcein uptake
Structure (SMILES): O=C(c1cc(F)cc2c1OCOC2)N1CCN(C2c3ccccc3-c3ccccc32)CC1 [Compound C3, [4-(9h-fluoren-9-yl)piperazino](6-fluoro-4h-1,3-benzodioxin-8-yl)methanone]
